Legend:
hACSL5 [1] = target: T1, hACSL5 (Homo sapiens (Human), UniProt Q9ULC5); assay: Human ACSL5 coupled enzyme Amplex Red assay; assay type: biochemical; details: read-out: hACSL5 IC50
Method: Human ACSL5 (33-683) was cloned with a C-terminal 6 His tag and expressed in insect cells (sf9) as per standard insect cell expression protocols. Human ACSL5 was enriched by affinity nickel affinity chromatography followed by Superdex S200 gel filtration column equilibrated in 20 mM HEPES pH 7.8, 500 mM NaCl, 1 mM TCEP, 5% glycerol, 0.1% Triton X^100.
Inhibition of ACSL5 enzyme activity was monitored with a coupled enzyme Amplex Red assay.
The assay is carried out in 384-well microtiterplates. In a total volume of […], compounds are preincubated with 20 nM ACSL5, in a buffer containing 150 mM MOPS-NaOH, 12 mM MgCl2, 0.03% (v/v) Triton X-100, 2.79 U mL-1 Peroxidase and 24 U mL-1 Acyl-CoA Oxidase (pH 7.6). The reaction is started by the addition of substrate and co factors (25 μM oleate, 30 μM CoA, 1 mM ATP and 50 μM Amplex Red) and the fluorescence detected after 10 minutes at 25° C. with a fluorescence reader (BMG-Fluostar; BMG-Technologies) using an excitation wavelength of 535 nm and an emission wavelength of 590 nm.
(§1) Concentration-response titration points for each compound tested were filled to the Hill equation yielding concentrations of half maximal inhibition […] and maximal inhibition values.
Target sequence in this assay (Q9ULC5 33-683): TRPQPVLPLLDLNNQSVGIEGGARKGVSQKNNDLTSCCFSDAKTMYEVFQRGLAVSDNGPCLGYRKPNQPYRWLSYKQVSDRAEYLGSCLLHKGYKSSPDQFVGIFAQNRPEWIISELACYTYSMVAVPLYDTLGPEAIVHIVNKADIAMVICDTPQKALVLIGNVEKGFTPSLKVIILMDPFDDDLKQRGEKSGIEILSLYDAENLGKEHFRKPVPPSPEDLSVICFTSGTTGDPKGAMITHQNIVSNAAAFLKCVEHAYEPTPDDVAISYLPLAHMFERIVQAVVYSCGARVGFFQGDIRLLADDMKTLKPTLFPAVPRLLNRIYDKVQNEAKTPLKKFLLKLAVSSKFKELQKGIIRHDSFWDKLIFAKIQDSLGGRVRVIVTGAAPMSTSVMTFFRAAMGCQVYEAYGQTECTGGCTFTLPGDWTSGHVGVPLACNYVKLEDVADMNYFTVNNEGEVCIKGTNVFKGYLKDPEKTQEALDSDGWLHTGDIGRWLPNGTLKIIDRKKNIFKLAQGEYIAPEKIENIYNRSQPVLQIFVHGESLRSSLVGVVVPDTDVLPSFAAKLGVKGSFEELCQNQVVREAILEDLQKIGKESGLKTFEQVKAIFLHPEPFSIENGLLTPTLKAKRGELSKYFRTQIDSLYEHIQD

hACSL5 [2] = target: T1, hACSL5; assay: Cell-based assay (CBA) with B12FA in hACSL5-transfected Expi293F / FlpIn TRex293 cells; details: hACSL5-expressing cells
Description: To assess the cell penetration and cellular activity of the compounds, a cell-based assay (CBA) was used to detect compound potency in living cells. The assay utilized the fluorescent fatty acid analogue B12FA, a boron-dipyrromethene (BODIPY™) labelled C12 fatty acid that can be incorporated into glycerophosphocholine in the cytoplasmic oil droplets of live cells. A concentration-dependent, red-shifted fluorescence can be induced by the formation of BODIPY™ excimers in the oil droplets.
Expi293F cells transfected with full length hACSL5 plasmid were selected using 1 mg/mL G418 culture medium and clones were selected by in vitro whole cell lysate (WCL) assay. The cell passage number used in the Expi293 CBA assay could not be used beyond 10 passages due to a decrease in hACSL5 expression. Therefore, a CBA using FlpIn TRex293 cells for inducible expression of hACSL5 was also established.
FlpIn TRex293 cells transfected with hACSL5 plasmid were selected in culture medium containing 15 µg/ml Blasticidin and 150 µg/ml Hygromycin. For cell-based assays, stable transfected hACSL5 cells were seeded onto a 96-well plate at 30-50k/well and incubated overnight. For the inducible system, […] tetracycline (or doxycycline) was added to culture medium of FlpIn TRex293 hACSL5 cells on the day before the assay to induce expression of hACSL5. The next day, growth media was replaced with culture medium without FBS and glucose (DMEM glucose (-), ThermoFisher) and cells were incubated for an hour before treating cells with serial diluted compounds containing 20 µM B12FA (ThermoFisher) for another 3 hours in the above medium. Cells were then fixed in 4% formaldehyde for 10 minutes and washed twice with PBS. The plate was read using the Cytation 5 imaging system with an excitation wavelength of 485 nm and observed emissions at 630 nm and 520 nm. The percentage of inhibition was calculated as: […]
wherein A is the ratio of emission intensities at 630 nm/520 nm in the absence of inhibitor (maximum ratio); B is the ratio of the intensities at those wavelengths in the presence of […] of the test compound or non-induced cells (minimum ratio); and X is the ratio of the intensities at a given compound concentration.
as §1
Target sequence in this assay (Q9ULC5 whole entry): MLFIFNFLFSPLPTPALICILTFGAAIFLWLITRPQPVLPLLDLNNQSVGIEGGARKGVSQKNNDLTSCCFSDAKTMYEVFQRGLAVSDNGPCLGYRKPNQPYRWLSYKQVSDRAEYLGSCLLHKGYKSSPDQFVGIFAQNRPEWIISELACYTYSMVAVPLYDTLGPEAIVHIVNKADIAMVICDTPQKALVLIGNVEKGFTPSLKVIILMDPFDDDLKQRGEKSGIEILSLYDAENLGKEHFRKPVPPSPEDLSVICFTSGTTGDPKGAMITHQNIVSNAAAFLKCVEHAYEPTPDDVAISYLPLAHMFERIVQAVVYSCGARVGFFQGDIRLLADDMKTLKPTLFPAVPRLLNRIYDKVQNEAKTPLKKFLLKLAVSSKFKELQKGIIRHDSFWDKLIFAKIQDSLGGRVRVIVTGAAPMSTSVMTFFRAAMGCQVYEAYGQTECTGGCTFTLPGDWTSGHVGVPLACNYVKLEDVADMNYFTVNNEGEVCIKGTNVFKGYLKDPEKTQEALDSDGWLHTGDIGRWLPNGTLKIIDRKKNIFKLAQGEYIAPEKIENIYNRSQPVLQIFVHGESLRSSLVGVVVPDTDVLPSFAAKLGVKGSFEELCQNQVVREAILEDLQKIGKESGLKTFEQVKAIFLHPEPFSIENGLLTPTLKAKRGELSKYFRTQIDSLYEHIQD

Row | IC50 (hACSL5 [1]) [nM] | IC50 (hACSL5 [2]) [nM] | Structure (SMILES)
1 | < 100 | > 500 | CC[C@@H](Oc1ccc(C(=O)NS(=O)(=O)c2ccc(O[C@@H]3C[C@H]4C[C@@H]3CN4C)cc2)c(F)c1F)c1ccc(OCC2CC2)cn1 [4-((R)-1-(5-(cyclopropylmethoxy)pyridin-2-yl)propoxy)-2,3-difluoro-N-((4-(((1R,4R,5R)-2-methyl-2-azabicyclo[2.2.1]heptan-5-yl)oxy)phenyl)sulfonyl)benzamide]
2 | < 100 | 100 to 500 | CC[C@@H](Oc1ccc(C(=O)NS(=O)(=O)c2ccc(O[C@@H]3CCN(C)C3)cc2)c(F)c1F)c1ccc(OCC2CC2)cn1 [4-((R)-1-(5-(cyclopropylmethoxy)pyridin-2-yl)propoxy)-2,3-difluoro-N-((4-(((R)-1-methylpyrrolidin-3-yl)oxy)phenyl)sulfonyl)benzamide]
3 | < 100 | 100 to 500 | CC[C@@H](Oc1ccc(C(=O)NS(=O)(=O)c2ccc(O[C@H]3CCN(C)C3)cc2)c(F)c1F)c1ccc(OCC2CC2)cn1 [4-((R)-1-(5-(cyclopropylmethoxy)pyridin-2-yl)propoxy)-2,3-difluoro-N-((4-(((S)-1-methylpyrrolidin-3-yl)oxy)phenyl)sulfonyl)benzamide]
4 | < 100 | 100 to 500 | CC[C@@H](Oc1ccc(C(=O)NS(=O)(=O)N2CC3CC2CC3OCCN2CCCC2)c(F)c1F)c1ccc(OCC2CC2)cn1 (stereo partly drawn) [4-((R)-1-(5-(cyclopropylmethoxy)pyridin-2-yl)propoxy)-2,3-difluoro-N-((5-(2-(pyrrolidin-1-yl)ethoxy)-2-azabicyclo[2.2.1]heptan-2-yl)sulfonyl)benzamide]
5 | 100 to 500 | 100 to 500 | CC[C@@H](Oc1ccc(C(=O)NS(=O)(=O)N2C[C@H]3C[C@@H]2CN3C)c(F)c1F)c1ccc(OCC2CC2)cn1 [4-((R)-1-(5-(cyclopropylmethoxy)pyridin-2-yl)propoxy)-2,3-difluoro-N-(((1R,4R)-5-methyl-2,5-diazabicyclo[2.2.1]heptan-2-yl)sulfonyl)benzamide]
6 | 100 to 500 | 100 to 500 | CC[C@@H](Oc1ccc(C(=O)NS(=O)(=O)N2C[C@@H]3C[C@H]2CN3C)c(F)c1F)c1ccc(OCC2CC2)cn1 [4-((R)-1-(5-(cyclopropylmethoxy)pyridin-2-yl)propoxy)-2,3-difluoro-N-(((1S,4S)-5-methyl-2,5-diazabicyclo[2.2.1]heptan-2-yl)sulfonyl)benzamide]
7 | < 100 | < 100 | CC[C@@H](Oc1ccc(C(=O)NS(=O)(=O)N2C[C@@H](C)N(C)[C@@H](C)C2)c(F)c1F)c1ccc(OCC2CC2)cn1 [4-((R)-1-(5-(cyclopropylmethoxy)pyridin-2-yl)propoxy)-2,3-difluoro-N-(((3S,5R)-3,4,5-trimethylpiperazin-1-yl)sulfonyl)benzamide]

The remaining lines, values behind:

Row | Structure (SMILES) | IC50 (hACSL5 [1]) [nM] | IC50 (hACSL5 [2]) [nM]
8 | CC[C@@H](Oc1ccc(C(=O)NS(=O)(=O)N2CCC(OC3CCN(C)CC3)CC2)c(F)c1F)c1ccc(OC2CC(OC)C2)cn1 (stereo partly drawn) [2,3-difluoro-4-((R)-1-(5-((1R,3R)-3-methoxycyclobutoxy)pyridin-2-yl)propoxy)-N-((4-((1-methylpiperidin-4-yl)oxy)piperidin-1-yl)sulfonyl)benzamide] | < 100 | 100 to 500
9 | CC[C@@H](Oc1ccc(C(=O)NS(=O)(=O)N2CCN(C)CC2)c(F)c1F)c1ccc(OC2CC(OC)C2)cn1 (stereo partly drawn) [2,3-difluoro-4-((R)-1-(5-((1R,3R)-3-methoxycyclobutoxy)pyridin-2-yl)propoxy)-N-((4-methylpiperazin-1-yl)sulfonyl)benzamide] | 100 to 500 | 100 to 500
10 | CC[C@@H](Oc1ccc(C(=O)NS(=O)(=O)c2ccc(OC3CCCN(C)C3)cc2)c(F)c1F)c1ccc(Oc2ccccn2)cn1 (stereo partly drawn) [2,3-difluoro-N-((4-((1-methylpiperidin-3-yl)oxy)phenyl)sulfonyl)-4-((R)-1-(5-(pyridin-2-yloxy)pyridin-2-yl)propoxy)benzamide] | < 100 | < 100
11 | CC(Oc1ccc(C(=O)NS(=O)(=O)c2cnn(CCN(C)C)c2)c(F)c1F)c1cccc(OCC2CC2)c1 (stereo not shown) [4-(1-(3-(cyclopropylmethoxy)phenyl)ethoxy)-N-((1-(2-(dimethylamino)ethyl)-1H-pyrazol-4-yl)sulfonyl)-2,3-difluorobenzamide] | 100 to 500 | > 500
12 | CC[C@@H](Oc1ccc(C(=O)NS(=O)(=O)N2CCN(C)CC2)c(F)c1F)c1ccc(OC2CC(OC(F)F)C2)cn1 (stereo partly drawn) [4-((R)-1-(5-((1R,3R)-3-(difluoromethoxy)cyclobutoxy)pyridin-2-yl)propoxy)-2,3-difluoro-N-((4-methylpiperazin-1-yl)sulfonyl)benzamide] | 100 to 500 | 100 to 500
13 | CC[C@@H](Oc1ccc(C(=O)NS(=O)(=O)N2CCC(OC3CCN(C)CC3)CC2)cc1C(F)(F)F)c1ccc(OC2CC(OC)C2)cn1 (stereo partly drawn) [4-((R)-1-(5-((1R,3R)-3-methoxycyclobutoxy)pyridin-2-yl)propoxy)-N-((4-((1-methylpiperidin-4-yl)oxy)piperidin-1-yl)sulfonyl)-3-(trifluoromethyl)benzamide] | < 100 | 100 to 500
14 | CC[C@@H](Oc1ccc(C(=O)NS(=O)(=O)N2CCN(C)CC2)cc1C(F)(F)F)c1ccc(OC2CC(OC)C2)cn1 (stereo partly drawn) [4-((R)-1-(5-((1R,3R)-3-methoxycyclobutoxy)pyridin-2-yl)propoxy)-N-((4-methylpiperazin-1-yl)sulfonyl)-3-(trifluoromethyl)benzamide] | 100 to 500 | 100 to 500
15 | CC[C@@H](Oc1ccc(C(=O)NS(=O)(=O)c2ccc(OCC[C@H]3CCCCN3C)cc2)c(F)c1F)c1ccc(OCC2CC2)cn1 [4-((R)-1-(5-(cyclopropylmethoxy)pyridin-2-yl)propoxy)-2,3-difluoro-N-((4-(2-((R)-1-methylpiperidin-2-yl)ethoxy)phenyl)sulfonyl)benzamide] | < 100 | 100 to 500
16 | CC[C@@H](Oc1ccc(C(=O)NS(=O)(=O)c2ccc(OCCN3CC[C@H](F)C3)cc2)c(F)c1F)c1ccc(OCC2CC2)cn1 [4-((R)-1-(5-(cyclopropylmethoxy)pyridin-2-yl)propoxy)-2,3-difluoro-N-((4-(2-((S)-3-fluoropyrrolidin-1-yl)ethoxy)phenyl)sulfonyl)benzamide] | < 100 | 100 to 500
17 | CC[C@@H](Oc1ccc(C(=O)NS(=O)(=O)c2ccc(OC3CCN(C)C(C)(C)C3)cc2)c(F)c1F)c1ccc(OCC2CC2)cn1 (stereo partly drawn) [4-((R)-1-(5-(cyclopropylmethoxy)pyridin-2-yl)propoxy)-2,3-difluoro-N-((4-((1,2,2-trimethylpiperidin-4-yl)oxy)phenyl)sulfonyl)benzamide] | < 100 | 100 to 500
18 | CC[C@@H](Oc1ccc(C(=O)NS(=O)(=O)c2ccc(OC3CCCN(C)C3)cc2)c(F)c1F)c1ccc(OCC2CC2)cn1 (stereo partly drawn) [4-((R)-1-(5-(cyclopropylmethoxy)pyridin-2-yl)propoxy)-2,3-difluoro-N-((4-((1-methylpiperidin-3-yl)oxy)phenyl)sulfonyl)benzamide] | < 100 | < 100
19 | CC[C@@H](Oc1ccc(C(=O)NS(=O)(=O)N2CC3CC(C2)N3C)c(F)c1F)c1ccc(OCC2CC2)cn1 [4-((R)-1-(5-(cyclopropylmethoxy)pyridin-2-yl)propoxy)-2,3-difluoro-N-((6-methyl-3,6-diazabicyclo[3.1.1]heptan-3-yl)sulfonyl)benzamide] | < 100 | < 100
20 | CC[C@@H](Oc1ccc(C(=O)NS(=O)(=O)N2CC3CCC(C2)N3C)c(F)c1F)c1ccc(OCC2CC2)cn1 [4-((R)-1-(5-(cyclopropylmethoxy)pyridin-2-yl)propoxy)-2,3-difluoro-N-((8-methyl-3,8-diazabicyclo[3.2.1]octan-3-yl)sulfonyl)benzamide] | < 100 | < 100
